≈ marks a conversion by molar mass, not a printed value. Where two headings read alike, the source gives them in different places.
Legend:
[1] = test system: isolated rat liver mitochondria; assay: Mitochondrial permeabilization (ΔΨ, large-amplitude swelling); conditions: for IC50: read-out: IC50 of mitochondrial swelling, swelling 30 min after ceramide treatment
Method: Effects of ceramides on ΔΨ value (17A) and mitochondrial large-amplitude swelling (17B, 17C) Mitochondria were incubated at the condition described under Section 9.1 except that 2 μM of TPP+ was present from the beginning of the experiment. Alamethicin (ALA), a pore-forming peptide (7 μg/mg protein), was added as indicated to induce permeabilization and determine the full extend of potential changes in the parameters of interest. Where indicated ceramides at 40 μM were present from the beginning of the experiment. FIGS. 17A and 17B show time-courses of ceramides effect on ΔΨ and mitochondrial swelling. […] Degree of mitochondrial swelling was determined 30 min after ceramide treatment.
Mitochondria were incubated at the condition described under Section 9.1 except that 2 μM of TPP+ was present from the beginning of the experiment. Trace 2, no addition. […] Trace 4, FCCP at 1 μM was present from the beginning of the experiment. […] Alamethicin (ALA), a pore-forming peptide (7 μg/mg protein), was added as indicated to induce permeabilization and determine the full extent of potential changes in the parameters of interest.
Mitochondria were incubated at the condition described under “Experimental procedures”. […] Trace 2, DCCD at 100 μM was added from the beginning of the experiment. Alamethicin (ALA) was added as indicated to determine full degree of permeabilization. […] The curve was generated from experiments similar to that depicted in traces 1 and 2 with indicated concentration of DCCD present from the beginning of the experiment.
Effect of hydrophobic cations on the time-course of mitochondrial large-amplitude swelling. Alamethicin (ALA), a pore-forming peptide (7 μg/mg protein), was added as indicated to induce permeabilization and determine the full extent of mitochondrial swelling. Where indicated cations at 60 μM were added to the incubation medium. Trace 1, no additions; trace 2, C2 pyridinium ceramide; trace 3, TMRM; trace 4, cetyl pyridinium; trace 5, TPP^+. Trace 3 was corrected for the absorbance of TMRM.
Time-course (A) and dose-response (B) of the effect of C6 pyridinium dihydroceramide on mitochondrial large-amplitude swelling. Mitochondria were incubated at the condition described under “Experimental procedures”. Alamethicin (ALA), a pore-forming peptide (7 μg/mg protein), was added as indicated to induce permeabilization and determine the full extent of mitochondrial swelling. Where indicated ceramides at 30 μM were added to the incubation medium. […] Trace 1, no additions; trace 2, C6 pyridinium ceramide; trace 3, C6 pyridinium dihydroceramide. […] Degree of mitochondrial swelling was determined 15 min after ceramide treatment. Trace 1, C6 pyridinium dihydroceramide; trace 2, C6 pyridinium ceramide.

[2] = test system: Hep G2 cells
Method: (§1) Dose-response curves of ceramides effect on viability of Hep G2 and MCF7 cells. Hep G2 and MCF7 cells were incubated at the condition described in Section 9.1. […] Cell viability was assessed 46 hours after addition of ceramides. Data are expressed as a mean+SEM of n=3.
(§2) Cell culture. Hep G2 cells (obtained from ATCC) were cultured in Minimum essential medium (Eagle) supplemented with 10% fetal bovine serum, 2 mM L-glutamine, non-essential amino acids, 1 mM sodium pyruvate, and 1.5 g/L sodium bicarbonate in humidified air (5% CO2) at 37° C. […] MCF7 cells (obtained from ATCC) were cultured in RPMI 1640 Medium supplemented with 10% fetal bovine serum and 2 mM glutamine in humidified air (5% CO2) at 37° C. All media were supplemented with 100 U/ml penicillin and 100 μg/ml streptomycin.
(§3) Measurement of cell viability. Hep G2 or MCF7 cells were plated at a density of 10^4 cells/well in 96-well plates in the medium described under Cell culture. After 24 hours of incubation, the cells were treated with ceramides for 46 hours in 2% fetal bovine serum medium. Cell viability was determined by MTT (3-[4,5-dimethylthiazol-2-yl]-2,5-diphenyl tetrasodium bromide) based assay according manufacture recommendation (Sigma, St. Louis, Mo.).

[3] = Solubility of ceramides and ceramidoids in water; conditions: 37° C.
[4] = test system: MCF7 cells
Method: as §1, §2, §3

[5] = test system: MCF7 breast carcinoma cells; assay: Cell proliferation and viability, Trypan blue exclusion assay; assay type: cell-based; conditions: for IC50: 48 h treatment, read-out: IC50, inhibitory effect on MCF7 cell growth
Method: FIGS. 5A-5F show the dose dependent effects of CCPS analogs on survival of MCF7 breast carcinoma cells in comparison to the activity of D-e-C6-ceramide, which is commonly used as a model of ceramide action. Cell proliferation and cell viability were determined by Trypan blue exclusion assay. These assays were performed using duplicate samples in two or three independent experiments.
Cell Proliferation: Cells were seeded into plates at a density of approx. 50% corresponding to 1×10^6 cells, in 10 ml of 10% FCS and after an over night incubation the cells were treated with LCL compounds at concentration 0-20 μM in ethanol (ethanol level was kept below 0.1%) and the changes in cell numbers after 48 h were determined and expressed as a percentage of the untreated controls.
Briefly, media was removed, cells were washed twice with PBS, detached using 1% Trypsin and centrifuged at 800 rpm. Cell pellets were resuspended in PBS and Trypan blue (Sigma Chemicals, St. Louis, Mo., USA) was added (1:1 dilution). Under light microscope, the percentage of unstained and stained cells was assessed.
To examine the anticancer activity of CCPS analogs of the invention, their inhibitory effect on MCF7 breast carcinoma cells were analyzed and compared to the activity of D-e-C6-ceramide, which is commonly used as a model of action for ceramides. Cell proliferation and cell viability were determined by Trypan blue exclusion assay.

[6] = test system: isolated rat liver mitochondria; assay: Accumulation / binding in isolated mitochondria
Method: FIG. 16. […] Bar 2 and 4 (+FCCP), ΔΨ was dissipated by addition of FCCP at 1 μM plus antimycin A at 0.5 μg/mg protein from the beginning of the experiment. Results are expressed as mean+SEM of n=3, *p=0.01 versus control.
FIG. 23. […] Trace 3 was corrected for the absorbance of TMRM.
Preparation of mitochondria from rat liver.
Mitochondrial incubation medium.
Analysis of ceramides by mass spectroscopy (MS).

[7] = test system: isolated rat liver mitochondria; assay: Cytochrome C release from mitochondria; assay type: biochemical; conditions: 40 μM; for cytochrome C released from mitochondria: 20 minutes of incubation
Method: FIGS. 20A and 20B. […] Two min after the addition of CSA and EGTA samples were collected and treated for cytochrome C analysis. Alamethicin (ALA, 7 μg/mg protein) was added as indicated to determine the full degree of permeabilization and maximum cytochrome C release. […] Total amount of cytochrome C is 1.95 μg/mg protein.
Cytochrome C release from mitochondria. Aliquots of mitochondrial suspension were taken as indicated in figure legends and centrifuged at 15,000 g for 3 min. The supernatant and mitochondrial pellet were frozen and stored at […]. Cytochrome C in supernatants and pellets was quantified using the Quantikine cytochrome C ELISA kit (R&D Systems, Minniapolis, Minn.).

[8] = test system: MCF7 cells; conditions: 5 μM, 5 h
Method: FIGS. 4A-4C show the cellular levels of CCPS analogs. MCF 7 cells were treated with 5 μM concentration of CCPS analogs over the time and cellular level of the nonmetabolized CCPSs was measured by MS methodology as shown under Experimental. Results are expressed as % of concentration applied.
A parallel set of cells was used to determine cell proliferation and to prepare lipid extracts for MS analysis.
Briefly, for the indicated points, media was removed, cells were washed twice with PBS, scraped into cold PBS (2×1.0 ml), transferred to glass vials and centrifuged for 5 min at 800 rpm. Cell pellets corresponding to ˜1×10^6 cells, were fortified with the internal standards IS (C17 base D-erythro-sphingosine: 17Sph, C17 sphingosine-1-phosphate: 17Sph-1P, N-palmitoyl-D-erythro-C13 sphingosine: 13CC16-Cer and N-heptadecanoyl-D-erythro-C17shingosine: 17CC17-Cer) and extracted (2×2 ml) into a one-phase solvent system with ethyl acetate/iso-propanol/water (60/30/10 v/v). One ml of this extract was used for Pi determination after lipid re-extraction by the Bligh and Dyer method. Remaining lipid extract was evaporated, reconstituted in 100 μl of methanol, and samples were injected on the Surveyor/TSQ 7000 LC/MS system and gradient eluted from the BDS Hypersil C8, 150×3.2 mm, 3 μm particle size column, with 1.0 mM methanolic ammonium formate/2 mM aqueous ammonium formate mobile phase system. Peaks corresponding to the target analytes and IS were collected and processed using the Xcalibur software system.
Cellular level of CCPS analogs was established by MS methodology.

[9] = test system: UM-SCC-22A cells; assay: Cell cycle profiles by flow cytometry; assay type: cell-based, human; conditions: 1 μM, 48 hr
Method: FIGS. 13A to 13B. Roles of CCPS on cell cycle profiles, and telomerase activity of UM-SCC-22A cells. (FIG. 13A) The effects of D-e-C6—, D-e-C12- and L-th-C12-pyridinium ceramides (at 1 μM for 48 hr) on cell cycle profiles of UM-SCC-22A cells were determined and compared to that of untreated cells using flow cytometry as described in Materials and Methods. (FIG. 13B) The effects of 0, 100, 250 and 500 nM L-t-C6-Pyr-Cer (LCL-124) (lanes 1-4, respectively) at 96 hr treatment in UM-SCC-22A cells on telomerase activity was assessed using TRAP assay. Lanes 5 and 6 contain positive (+) and negative (−) controls. To examine whether C6-Pyr-Cer inhibits telomerase activity directly, cell extracts (as shown in lane 1) were incubated in the presence of various concentrations of L-th-C6-Pyr-ceramide (LCL-124; 10, 20 and 100 μM) and telomerase activity was determined using TRAP assay (lanes 7-9, respectively). The presence of non-telomeric 36 bp internal standard (IS) in the TRAP assay serves as a control for polymerase chain reaction, and used for quantitation/normalization of the activity of telomerase. The results shown are representative of at least two independent experiments.
Analysis of cell cycle profiles. The effects of pyridinium ceramides on the cell cycle profiles of A549 cells at 24 hr were analyzed in the presence of DNase-free RNase and propidium iodine (PI) by flow cytometry as described in Ogretmen et al., J. Biol. Chem. 2001; 276: 24901-24910, which is incorporated herein by reference in its entirety. Untreated cells were used as controls.
Analysis of cell cycle profiles. […] Untreated cells were used as controls.

[10] = aqueous conditions at pH 4.5, 7.5 and 8.5 over 48 hrs
[11] = test system: UM-SCC-22A cells; assay: MTT cell survival assay and isobologram studies; assay type: cell-based, human; conditions: UM-SCC-22A, read-out: IC50, cell growth
Method: Human head and neck cancer cell lines UM-SCC-1 (retromolar trigone/floor of the mouth), UM-SCC-12 (primary tumor of larynx), and UM-SCC-22A cells were obtained from clinical samples. Cells were grown in DMEM containing 10% FCS and 1% penicillin/streptomycin at 37° C. in 5% CO2.
MTT cell survival assay and isobologram studies. The concentrations of agents that inhibited cell growth by 50% (IC50) were determined from cell survival plots obtained by MTT. Triplicate wells were used for each treatment. The final concentration of DMSO (a solvent for conventional ceramides, GMZ and DOX) in the growth medium was less than 0.1% (v/v) which has no effect on cell growth and survival. Pyridinium ceramides were dissolved in sterile water or growth medium. In short, after cells (5-10×10^3/well) were seeded in 96-well-plates for 24 hr, they were treated with increasing concentrations of ceramide analogs for an additional 48 or 96 hr. For combination treatments, ceramides and chemotherapeutic agents (gemcitabine (GMZ) or doxorubicin (DOX)) were added to the growth medium simultaneously during treatment. Isobologram plots were then constructed using IC50 values of the two agents alone or in combination obtained from MTT assays. A straight line joining points on x- and y-axes represent the IC50 concentrations of two agents, and the points representing the IC50 concentrations of the combination of the two agents are represented as scatter plots on the same graphs. In general, the points that fall within the left of the straight line indicate synergism. The experiments were performed as triplicates in at least 3 independent experiments.
Human head and neck cancer cell lines UM-SCC-1 (retromolar trigone/floor of the mouth), UM-SCC-14A (SCC of anterior floor of the mouth), and UM-SCC-22A (SCC of hypopharynx) cells were obtained. Cells were grown in DMEM containing 10% FCS and 1% penicillin/streptomycin at 37° C. in 5% CO2.
MTT cell survival assay and isobologram studies. The concentrations of agents that inhibited cell growth by 50% (IC50) were determined from cell survival plots obtained by MTT assays. […] In general, the points that fall within the left of the straight line indicate synergism. The experiments were performed as triplicates in at least 3 independent experiments. Error bars represent standard deviations.

[12] = test system: MCF7 cells; conditions: 5 μM
Method: Data are expressed as changes in the total ceramide level (pmol) or individual ceramide components (pmol) normalized to the phospholipid level, Pi (nmol) present in the Bligh & Dyer lipid extract and shown as changes to the control cells: Ceramide/Pi[pmol/nmol] (% Control).
Endogenous ceramide: ESI/MS/MS analysis of endogenous sphingoid bases, sphingoid base 1-phosphates and ceramide species was performed on a Thermo Finnigan TSQ 7000 triple quadrupole mass spectrometer, operating in a Multiple Reaction Monitoring (MRM) positive ionization mode using modified version (Bielawski, J. et al., SERMACS 2003, poster #68) of the protocol previously published (Sullard, M. C., Merrill, A. H., Sciences stke 2001/67/p 11).
Briefly, for the indicated points, media was removed, cells were washed twice with PBS, scraped into cold PBS (2×1.0 ml), transferred to glass vials and centrifuged for 5 min at 800 rpm. Cell pellets corresponding to ˜1×10^6 cells, were fortified with the internal standards IS (C17 base D-erythro-sphingosine: 17Sph, C17 sphingosine-1-phosphate: 17Sph-1P, N-palmitoyl-D-erythro-C13 sphingosine: 13CC16-Cer and N-heptadecanoyl-D-erythro-C17shingosine: 17CC17-Cer) and extracted (2×2 ml) into a one-phase solvent system with ethyl acetate/iso-propanol/water (60/30/10 v/v). One ml of this extract was used for Pi determination after lipid re-extraction by the Bligh and Dyer method. Remaining lipid extract was evaporated, reconstituted in 100 μl of methanol, and samples were injected on the Surveyor/TSQ 7000 LC/MS system and gradient eluted from the BDS Hypersil C8, 150×3.2 mm, 3 μm particle size column, with 1.0 mM methanolic ammonium formate/2 mM aqueous ammonium formate mobile phase system. […]
Quantitative analysis was based on the calibration curves generated by spiking an artificial matrix with the known amounts of the target analyte synthetic standards and an equal amount of the internal standards (IS). […]
Final data were adjusted and results were expressed as level of particular sphingolipids/Pi (pmol/nmol).

Row | Molecule | IC50 [1] [nM] | IC50 [2] [nM] | IC50 [4] [nM] | IC50 [5] [nM] | cytochrome C released from mitochondria [7] | Cellular level, % of concentration applied [8] [%] | cell cycle profile [9] | Stability (decomposition) by MS [10] | inhibitory effect on MCF7 cell growth (in words) ([5]; 48 h) | IC50 ([11]; 48 hr) [nM] | IC50 ([11]; 96 hr, DMEM) [nM] | effect on endogenous ceramide [12] | also measured
1 | CCCCCCCCCCCCC/C=C/[C@@H](O)[C@H](CO)NC(=O)CCCCC [C6-Cer, D-erythro-C6-ceramide, reference compound] | > 60000 | ~31000 | ~16000 | 15000 | no effect on cytochrome C release |  |  |  |  |  |  |  | Solubility at 37° C. [3]: 1.4 µg/mL (≈ 3.52 µM); Solubility at 37° C. ([mM]) [3]: (0.0036) mM; inhibition of MCF7 cell growth ([5]; 10 μM, 48 h): ~35%; suppression of accumulation by dissipation of ΔΨ (antimycin plus FCCP) ([6]; 10 μM): insensitive to dissipation of ΔΨ; association with mitochondria ([6]; 10 μM, energized mitochondria): 79.3%; binding to mitochondria ([6]; 30 μM, at 4 min): 5±0.8 nmol/mg protein
2 | CCCCCCCCCCCCC/C=C/[C@@H](O)[C@H](CO)NC(=O)CCCCCCCCCCCCCCC[n+]1ccccc1.[Br-] [LCL30, D-erythro-2-N-[16′-(1″-Pyridinium)-hexadecanoyl]-sphingosine Bromide] |  |  |  | 1800 |  | ~17 | significant increase in the population of cells in G0/G1 | no evidence of their decomposition | similar, concentration dependent (1.0-10.0 μM) inhibitory effect on cell growth | ~1000 | ~300 | caused generation of an “early Cer” | IC50 ([5]; listed as LCL-30): 1600 nM
3 | CCCCCCCCCCCCC/C=C/[C@@H](O)[C@H](CO)NC(=O)CCCCCCCCCCC[n+]1ccccc1.[Br-] [LCL88, D-erythro-2-N-[12′-(1″-Pyridinium)-dodecanoyl]-sphingosine Bromide] |  |  |  | 600 |  | 23 | significant increase in the population of cells in G0/G1 | no evidence of their decomposition |  | ~1000 | ~300 | caused generation of an “early Cer” | 
4 | D-erythro-2-N-[6′-(1″-Pyridinium)-hexanoyl]-sphingosine Bromide [LCL29] | ~27500 | ~8000 | ~2000 | 1000 | about 40% |  | significant increase in the population of cells in G0/G1 |  | caused inhibitory effect on MCF7 cell growth | ~1000 |  | caused generation of an “early Cer” | effect on ΔΨ and mitochondrial swelling (in words) ([1]; 40 μM): complete dissipation of ΔΨ; IC50 ([11]; 96 hr, DMEM, listed as D-e-C6-Pyr-Cer): ~300 nM; fold decrease in cytochrome C release with FCCP plus antimycin A ([7]; 20 minutes): ~3 fold

— patent publication US8093393B2, “Cationic ceramides, and analogs thereof, and their use for preventing or treating cancer” (MUSC Foundation for Research Development, priority 2004, dated 2012)
